Entries after “also recorded” stand apart in the source; their conditions may differ.
Tested on: human erythrocytes
Assay: Erythrocyte ATP release
Type: cell-based
Protocol: Erythrocyte ATP release was measured in both the absence and presence of (a) the PGI2 agonist, treprostinil in the form of UT-15 or its vehicle, saline, and (b) alone or in combination with the selective PDE5 inhibitor, zapranist (ZAP, 10 μM).

| SMILES | ATP release from erythrocytes (UT-15 30 nM alone, n=7) | ATP release from erythrocytes (UT-15 30 nM, cells pretreated with ZAP 10 μM, n=7) | ATP release from erythrocytes (UT-15 100 nM alone, n=7) | ATP release from erythrocytes (UT-15 100 nM, cells pretreated with ZAP 10 μM, n=7) | ATP release from erythrocytes compared to controls (UT-15 1 uM alone, n=7) | ATP release from human erythrocytes (UT-15 alone at 10 to 100 nM, FIG. 3) | ATP release from human erythrocytes (UT-15 alone, FIG. 2, concentration not printed in legend) | potentiation of UT-15-induced increases in ATP release (FIG. 2, concentration not printed in legend) | potentiation of UT-15-induced ATP release (ZAP 10 μM pretreatment, UT-15 1 uM, P<0.05) |
| --- | --- | --- | --- | --- | --- | --- | --- | --- | --- |
| CCCCC[C@H](O)CC[C@@H]1[C@H]2Cc3cccc(OCC(=O)O)c3C[C@H]2C[C@H]1O [UT-15, treprostinil] | no ATP release was detected | induce a response; also recorded: ATP release was stimulated | no ATP release was detected | induce a response; also recorded: ATP release was stimulated | increase in ATP release | does not stimulate ATP release | stimulates increases in ATP release | – | – |
| CCCOc1ccccc1-c1nc2nn[nH]c2c(=O)[nH]1 [zapranist] | – | – | – | – | – | – | – | potentiated | potentiated |

— patent US9387214B2, “Method of identifying therapies for pulmonary hypertension” (United Therapeutics Corporation, priority 2012, dated 2016)
